Experimental data reported in patent US9701711B2, “Modulators of protease activated receptors” (THE UNIVERSITY OF QUEENSLAND, priority 2010, dated 2017).
“And” between values parts separate entries of the source, which are not always exact repeats. Identical values can stand only once. Like-named read-outs stand apart in the source and are kept apart here.

Legend:
PAR2 [1] = target: T1, PAR2 (Homo sapiens, UniProt P55085); test: PAR2 activation (agonist) by intracellular calcium mobilisation in HT29 cells; assay type: cell-based; design: Agonists of Ca^2+ release in HT29 cells; endogenous in cells; host or cells: HT29 (human cell line, cultured per ATCC information); details: for EC50: Fluo-3 fluorescence
T1 sequence (P55085 26-397): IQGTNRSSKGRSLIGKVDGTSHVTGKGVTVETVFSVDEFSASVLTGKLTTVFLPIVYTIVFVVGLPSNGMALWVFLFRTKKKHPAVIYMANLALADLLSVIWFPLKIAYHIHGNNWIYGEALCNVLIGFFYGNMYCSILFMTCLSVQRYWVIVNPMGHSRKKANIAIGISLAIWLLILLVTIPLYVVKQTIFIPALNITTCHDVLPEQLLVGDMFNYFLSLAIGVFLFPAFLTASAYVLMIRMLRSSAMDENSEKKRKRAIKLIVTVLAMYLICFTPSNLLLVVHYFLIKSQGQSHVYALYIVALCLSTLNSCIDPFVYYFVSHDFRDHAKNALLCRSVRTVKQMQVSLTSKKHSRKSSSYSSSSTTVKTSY
Source text: (§1) The ability of the compounds of the present invention to activate PAR2 may be assessed via calcium mobilisation assays. It is appreciated that compounds that activate the release of intracellular calcium from one type of cell are agonists or partial agonists, while those that inhibit such release may be antagonists. […] The general assay protocols may vary slightly depending on the chosen cell line. In general, during cell culture passage, cell dissociation solution (CDS, Sigma Aldrich) is used to replace trypsin to dissociate cells from surface. Lipopolysaccharide (LPS) and trypsin are purchased from Sigma Aldrich. […] ELISA sets are purchased from BD Pharmingen (San Jose, Calif.) and cytokine array kits are purchased from RayBiotecho (Norcross, Ga.).
(§2) Cells are seeded overnight in 96-well black walled, clear bottomed, plate at approximately 2×10^4 to 4×10^5 cells per well. […] The cells are then washed twice with HBSS and transferred to a Polarstar spectrotluorimeter (BMG, Durham N.C.).
HBSS is prepared in-house and all other reagents are purchased from Invitrogen, Carlsbad. Plates are supplied by DKSH, Zurich. Calcimycin (A23187, Invitrogen) is used to measure maximum fluorescence, with individual results normalized accordingly.
Three different concentrations of 6 added to HT29 cells at room temperature. Duplicate measurements were made for each data point, accordingly, each data point represents mean±SEM. Net changes in fluorescence were calculated as a percentage relative to the maximum response given by 100 μM of the PAR2 agonist 2f-LIGRLO-NH2.

PAR2 [2] = target: T1, PAR2; test: PAR2 agonist inhibition (antagonism) by intracellular Ca2+ release in HT29 cells; assay type: cell-based; design: Agonists of Ca^2+ release in HT29 cells; endogenous in cells; host or cells: HT29 (human cell line, cultured per ATCC information)
Source text: as §1, §2
The cells are prepared as outlined above then treated with the “putative” antagonist 30 min prior to the addition of either trypsin or a synthetic agonist at a concentration equal to the agonists ED80.
The cells were then treated with 1 μM of the PAR2 agonist 2f-LIGRLO-NH2 (FIG. 2A. n=5) or 100 nM Trypsin (FIG. 2B, n=1). Each data point represents mean±SEM. Net changes in fluorescence were calculated as a percentage relative to the maximum response given 1 μM 2f-LIGRLO-NH2 or 100 nM Trypsin. Changes in fluorescence (% response) were plotted against logarithmic compound concentrations. The half maximal inhibitory concentration (IC50) values were derived from the dose response curve using a nonlinear regression curve in Graphpad Prism v5.

[3] = read-out: EC50, agonist or partial agonist of Ca2+ release in HT29 cells
[4] = EC50, agonist or partial agonist of Ca2+ release in HT29 cells
[5] = HT29 cells, 30 min pre-incubation, then PAR2 agonist (1 μM 2f-LIGRLO-NH2), read-out: IC50, inhibition of Ca2+ release in HT29 cells

Compound | EC50 (PAR2 [1]; [3]) | IC50 (PAR2 [2]; [5]) [µM] | further results
CC[C@H](C)[C@H](NC(=O)[C@H](CC1CCCCC1)NC(=O)c1ccno1)C(=O)NCc1ccc(OC)cc1 [Compound 4] | 10 µM | – | –
CC[C@H](C)[C@H](NC(=O)[C@H](CC1CCCCC1)NC(=O)c1ccno1)C(=O)NCc1cccc(F)c1 [Compound 7] | 40 µM | – | –
CC[C@H](C)[C@H](NC(=O)[C@H](CC1CCCCC1)NC(=O)c1ccno1)C(=O)NCc1ccc(F)cc1 [Compound 8] | 40 µM | – | –
CC[C@H](C)[C@H](NC(=O)[C@H](CC1CCCCC1)NC(=O)c1ccno1)C(=O)NCc1ccccc1[N+](=O)[O-] [Compound 9] | 10 µM | – | –
CC[C@H](C)[C@H](NC(=O)[C@H](CC1CCCCC1)NC(=O)c1ccno1)C(=O)N1CCC2(CC1)OC(=O)c1ccccc12 [Compound 14] | – | – | EC50 (PAR2 [1]; [4]): 1.3 µM
CC[C@H](C)[C@H](NC(=O)[C@H](CC1CCCCC1)NC(=O)c1ccno1)C(=O)N1CCC2(CC1)CC(=O)c1ccccc1O2 [Compound 15] | – | – | EC50 (PAR2 [1]; [4]): 0.76 µM
CC[C@H](C)[C@H](NC(=O)[C@H](CC1CCCCC1)NC(=O)c1ccno1)C(=O)NCc1cccc(OC)c1 [Compound 19] | – | 0.5 ± 0.1 | –
CCOc1ccccc1CNC(=O)[C@@H](NC(=O)[C@H](CC1CCCCC1)NC(=O)c1ccno1)[C@@H](C)CC [Compound 21] | – | 0.7 ± 0.1 | –
CCCOc1ccccc1CNC(=O)[C@@H](NC(=O)[C@H](CC1CCCCC1)NC(=O)c1ccno1)[C@@H](C)CC [Compound 22] | – | 2 | –
CCCCOc1ccccc1CNC(=O)[C@@H](NC(=O)[C@H](CC1CCCCC1)NC(=O)c1ccno1)[C@@H](C)CC [Compound 23] | – | 40 | –
CC[C@H](C)[C@H](NC(=O)[C@H](CC1CCCCC1)NC(=O)c1ccno1)C(=O)NCc1ccccc1OC(C)C [Compound 24, 5-isoxazoyl-Cha-Ile-aminomethyl-(2-isopropoxy)phenyl] | – | 1.3 ± 0.1 | –
CCC(C)Oc1ccccc1CNC(=O)[C@@H](NC(=O)[C@H](CC1CCCCC1)NC(=O)c1ccno1)[C@@H](C)CC (some centres unmarked) [Compound 25] | – | – | IC50 (PAR2 [2]): 1.6 ± 0.4 µM
CC[C@H](C)[C@H](NC(=O)[C@H](CC1CCCCC1)NC(=O)c1ccno1)C(=O)NCc1cccc2c1OCO2 [Compound 26, 5-isoxazoyl-Cha-Ile-aminomethyl-(1,3-dioxalane)phenyl] | – | 0.4 ± 0.1 | –
CC[C@H](C)[C@H](NC(=O)[C@H](CC1CCCCC1)NC(=O)c1ccno1)C(=O)NCc1ccc(Cl)c(Cl)c1 [Compound 27, 5-isoxazoyl-Cha-Ile-aminomethyl-(3,4-dichloro)phenyl] | – | 1.4 ± 0.8 | –
CC[C@H](C)[C@H](NC(=O)[C@H](CC1CCCCC1)NC(=O)c1ccno1)C(=O)NCc1ccccc1C(F)(F)F [Compound 28] | – | 1 to 2 | –
CC[C@H](C)[C@H](NC(=O)[C@H](CC1CCCCC1)NC(=O)c1ccno1)C(=O)NCc1cccc(C(=O)N2CCC(NCCN)(C(=O)NCc3ccccc3)CC2)c1 [Compound 29] | – | 0.7 | –
CC[C@H](C)[C@H](NC(=O)[C@H](CC1CCCCC1)NC(=O)c1ccno1)C(=O)N1CCCC[C@H]1C(=O)NC(C)(C)C [Compound 36] | – | 8.6 ± 2.6 | –
COc1ccccc1CNC(=O)[C@@H](NC(=O)[C@H](CC1CCCCC1)NC(=O)c1ccno1)[C@@H](C)OC [Compound 40, 5-isoxazoyl-Cha-Thr(Me)-aminomethyl-(2-methoxy)phenyl] | – | 1.3 | –

Continued, in another order:

EC50 (PAR2 [1]; [3]) | IC50 (PAR2 [2]; [5]) [µM] | Compound | further results
30 µM | – | CC[C@H](C)[C@H](NC(=O)[C@H](CC1CCCCC1)NC(=O)c1ccno1)C(=O)NCc1ccccc1 [Compound 3] | –
10 µM | – | CC[C@H](C)[C@H](NC(=O)[C@H](CC1CCCCC1)NC(=O)c1ccno1)C(=O)NCc1ccccc1Cl [Compound 5] | –
~30 µM and 30 µM | – | CC[C@H](C)[C@H](NC(=O)[C@H](CC1CCCCC1)NC(=O)c1ccno1)C(=O)NCc1ccccc1F [Compound 6, 5-isoxazoyl-Cha-Ile-aminomethyl-(2-fluoro)phenyl] | Emax at 30 µM (PAR2 [1]; HT-29, compound at 30 μM, room temperature, read-out: Response relative to the maximum response given by 100 μM 2f-LIGRLO-NH2): ≤ 50%
10 µM | – | CC[C@H](C)[C@H](NC(=O)[C@H](CC1CCCCC1)NC(=O)c1ccno1)C(=O)N1CCN(c2ccc(F)cc2)CC1 [Compound 10] | –
5 to 10 µM | – | CC[C@H](C)[C@H](NC(=O)[C@H](CC1CCCCC1)NC(=O)c1ccno1)C(=O)N1CCc2cc(OC)c(OC)cc2C1 [Compound 11] | –
1 to 6 µM | – | CC[C@H](C)[C@H](NC(=O)[C@H](CC1CCCCC1)NC(=O)c1ccno1)C(=O)N1CCC(NC(C)=O)(c2ccccc2)CC1 [Compound 12] | –
1.8 µM | – | CC[C@H](C)[C@H](NC(=O)[C@H](CC1CCCCC1)NC(=O)c1ccno1)C(=O)N1CCC2(CC1)CN(S(C)(=O)=O)c1ccccc12 [Compound 13] | –
5 to 7 µM | – | CC[C@H](C)[C@H](NC(=O)[C@H](CC1CCCCC1)NC(=O)c1ccno1)C(=O)N1CCC2(CC1)c1ccccc1C(O)C2O (some centres unmarked) [Compound 16] | –
20 µM | – | CC[C@H](C)[C@H](NC(=O)[C@H](CC1CCCCC1)NC(=O)c1ccno1)C(=O)N1CCC2(CC1)c1ccccc1C(NCc1ccc(F)cc1)C2O (some centres unmarked) [Compound 17] | –
– | 0.5 ± 0.1 | CC[C@H](C)[C@H](NC(=O)[C@H](CC1CCCCC1)NC(=O)c1ccno1)C(=O)NCc1ccccc1C [Compound 20] | –
– | 10 | CC[C@H](C)[C@H](NC(=O)[C@H](CC1CCCCC1)NC(=O)c1ccno1)C(=O)N1CCC(c2ccc(OC)cc2)CC1 [Compound 31] | –
– | 5 to 10 | CC[C@H](C)[C@H](NC(=O)[C@H](CC1CCCCC1)NC(=O)c1ccno1)C(=O)N1CCC(c2cc(OC)ccc2OC)CC1 [Compound 32] | –
– | 10 | CC[C@H](C)[C@H](NC(=O)[C@H](CC1CCCCC1)NC(=O)c1ccno1)C(=O)N1CCC(c2ccccc2C(F)(F)F)CC1 [Compound 33] | –
– | 25 | CC[C@H](C)[C@H](NC(=O)[C@H](CC1CCCCC1)NC(=O)c1ccno1)C(=O)N1CCC(c2ccccc2-c2ccccc2)CC1 [Compound 34] | –
– | 8 | CC[C@H](C)[C@H](NC(=O)[C@H](CC1CCCCC1)NC(=O)c1ccno1)C(=O)N1CCC(Cc2ccccc2)CC1 [Compound 35] | –
– | 5 to 10 | CC[C@H](C)[C@H](NC(=O)[C@H](CC1CCCCC1)NC(=O)c1ccno1)C(=O)N1CCC2(CCc3ccccc3O2)CC1 [Compound 37, 5-isoxazoyl-Cha-Ile-spiro[chroman-2,4′-piperidine]] | –
– | 6 | CC[C@H](C)[C@H](NC(=O)[C@H](CC1CCCCC1)NC(=O)c1ccno1)C(=O)N1CCCC(Nc2cccc(C(F)(F)F)c2)C1 (some centres unmarked) [Compound 38] | –
– | 6.4 | CC[C@H](C)[C@H](NC(=O)[C@H](CC1CCCCC1)NC(=O)c1ccno1)C(=O)N(C)Cc1ccccc1OC [Compound 39, 5-isoxazoyl-Cha-Ile-aminodimethyl-(2-methoxy)phenyl] | –
– | 60 | CC[C@H](C)[C@H](NC(=O)[C@H](CC1CCOCC1)NC(=O)c1ccno1)C(=O)N1CCC2(C=Cc3ccccc32)CC1 [Compound 43] | –
